Tested on: whole blood
Experiment: ROTEM whole blood coagulation with rabbit brain-derived tissue thromboplastin (TP) + Ca 12 mM (CTI 20 μg/mL, PKSI-527 40 μM where stated)
Type: cell-based
[1] = Ex11, TP 16.6 μg/mL+Ca+CTI+PKSI-527, heparan sulfate 1 μg/mL, no rTM
[2] = Ex11, TP 16.6 μg/mL+Ca+CTI+PKSI-527, heparan sulfate 1 μg/mL, rTM 50 μM (title: 50 nM)
[3] = Ex11, TP 16.6 μg/mL+Ca+CTI+PKSI-527, heparan sulfate 3 μg/mL, no rTM
[4] = Ex11, TP 16.6 μg/mL+Ca+CTI+PKSI-527, heparan sulfate 3 μg/mL, rTM 50 μM (title: 50 nM)
[5] = Ex11, TP 16.6 μg/mL+Ca+CTI+PKSI-527, heparan sulfate 10 μg/mL, no rTM
[6] = Ex11, TP 16.6 μg/mL+Ca+CTI+PKSI-527, heparan sulfate 10 μg/mL, rTM 50 μM (title: 50 nM)
[7] = Ex11, TP 16.6 μg/mL+Ca+CTI+PKSI-527, heparan sulfate 15 μg/mL, no rTM
[8] = Ex11, TP 16.6 μg/mL+Ca+CTI+PKSI-527, heparan sulfate 15 μg/mL, rTM 50 μM (title: 50 nM)
[9] = Ex11, TP 16.6 μg/mL+Ca+CTI+PKSI-527, heparan sulfate 20 μg/mL, no rTM
[10] = Ex11, TP 16.6 μg/mL+Ca+CTI+PKSI-527, heparan sulfate 20 μg/mL, rTM 50 μM (title: 50 nM)
[11] = Ex11, TP 16.6 μg/mL+Ca+CTI+PKSI-527, heparan sulfate 30 μg/mL, no rTM
[12] = Ex11, TP 16.6 μg/mL+Ca+CTI+PKSI-527, heparan sulfate 30 μg/mL, rTM 50 μM (title: 50 nM)
[13] = Ex12, TP 16.6 μg/mL+Ca+CTI+PKSI-527, heparan sulfate 5 μg/mL, no rTM
[14] = Ex12, TP 16.6 μg/mL+Ca+CTI+PKSI-527, heparan sulfate 5 μg/mL, rTM 100 μM (title: 100 nM)
[15] = Ex13, TP 0.033 μg/mL+Ca+CTI+PKSI-527, heparan sulfate 0.5 μg/mL, no rTM
[16] = Ex13, TP 0.033 μg/mL+Ca+CTI+PKSI-527, heparan sulfate 0.5 μg/mL, rTM 9 μM (title: 9 nM)
[17] = Ex14, TP 0.033 μg/mL+Ca+CTI+PKSI-527, heparan sulfate 0.1 μg/mL, no rTM
[18] = Ex14, TP 0.033 μg/mL+Ca+CTI+PKSI-527, heparan sulfate 0.1 μg/mL, rTM 10 nM
[19] = Ex14, TP 0.033 μg/mL+Ca+CTI+PKSI-527, heparan sulfate 0.2 μg/mL, no rTM
[20] = Ex14, TP 0.033 μg/mL+Ca+CTI+PKSI-527, heparan sulfate 0.2 μg/mL, rTM 10 nM
[21] = Ex14, TP 0.033 μg/mL+Ca+CTI+PKSI-527, heparan sulfate 0.3 μg/mL, no rTM
[22] = Ex14, TP 0.033 μg/mL+Ca+CTI+PKSI-527, heparan sulfate 0.3 μg/mL, rTM 10 nM
[23] = Ex14, TP 0.033 μg/mL+Ca+CTI+PKSI-527, heparan sulfate 0.4 μg/mL, no rTM
[24] = Ex14, TP 0.033 μg/mL+Ca+CTI+PKSI-527, heparan sulfate 0.4 μg/mL, rTM 10 nM
[25] = Ex14, TP 0.033 μg/mL+Ca+CTI+PKSI-527, heparan sulfate 0.5 μg/mL, no rTM
[26] = Ex14, TP 0.033 μg/mL+Ca+CTI+PKSI-527, heparan sulfate 0.5 μg/mL, rTM 10 nM
[27] = Ex15, TP 0.033 μg/mL+Ca+CTI+PKSI-527, heparan sulfate 0.1 μg/mL, no rTM
[28] = Ex15, TP 0.033 μg/mL+Ca+CTI+PKSI-527, heparan sulfate 0.1 μg/mL, rTM 5 nM
[29] = Ex15, TP 0.033 μg/mL+Ca+CTI+PKSI-527, heparan sulfate 0.2 μg/mL, no rTM

Substance: Heparan sulfate
- clotting time (CT) (Ex3/Ex9, TP 0.9 μg/mL+Startem, heparan sulfate 1 μg/mL, rTM 20 nM): 319 s
- clotting time (CT) (Ex4, TP 0.9 μg/mL+Ca+CTI+PKSI-527, heparan sulfate 1 μg/mL, no rTM): 162 s
- clotting time (CT) (Ex9, TP 0.9 μg/mL+Startem, heparan sulfate 1 μg/mL, no rTM): 154 s
- clotting time (CT) (Ex10, TP 0.45 μg/mL+Startem, heparan sulfate 1 μg/mL, no rTM): 251 s
- CFT (clot formation time) [1]: 93 s
- CT (clotting time) [1]: 58 s
- CFT (clot formation time) [2]: 72 s
- CT (clotting time) [2]: 55 s
- CFT (clot formation time) [3]: 93 s
- CT (clotting time) [3]: 62 s
- CFT (clot formation time) [4]: 73 s
- CT (clotting time) [4]: 62 s
- CFT (clot formation time) [5]: 55 s
- CT (clotting time) [5]: 94 s
- CFT (clot formation time) [6]: 95 s
- CT (clotting time) [6]: 143 s
- CFT (clot formation time) [7]: 66 s
- CT (clotting time) [7]: 120 s
- CFT (clot formation time) [8]: 255 s
- CT (clotting time) [8]: 255 s
- CFT (clot formation time) [9]: 61 s
- CT (clotting time) [9]: 144 s
- CFT (clot formation time) [10]: No CFT
- CT (clotting time) [10]: No CT
- CFT (clot formation time) [11]: 69 s
- CT (clotting time) [11]: 193 s
- CFT (clot formation time) [12]: No CFT
- CT (clotting time) [12]: No CT
- blood clotting time (Ex11, TP 16.6 μg/mL+Ca+CTI+PKSI-527, heparan sulfate 20 or 30 μg/mL, rTM 50 nM): ≥ 1 h
- CFT (clot formation time) [13]: 76 s
- CT (clotting time) [13]: 65 s
- CFT (clot formation time) [14]: 69 s
- CT (clotting time) [14]: 96 s
- CFT (clot formation time) [15]: 248 s
- CT (clotting time) [15]: 837 s
- CFT (clot formation time) [16]: 1484 s
- CT (clotting time) [16]: 1355 s
- CFT (clot formation time) [17]: 182 s
- CT (clotting time) [17]: 572 s
- CFT (clot formation time) [18]: 240 s
- CT (clotting time) [18]: 797 s
- CFT (clot formation time) [19]: 224 s
- CT (clotting time) [19]: 686 s
- CFT (clot formation time) [20]: 215 s
- CT (clotting time) [20]: 829 s
- CFT (clot formation time) [21]: 171 s
- CT (clotting time) [21]: 688 s
- CFT (clot formation time) [22]: 290 s
- CT (clotting time) [22]: 802 s
- CFT (clot formation time) [23]: 206 s
- CT (clotting time) [23]: 762 s
- CFT (clot formation time) [24]: 733 s
- CT (clotting time) [24]: 1360 s
- CFT (clot formation time) [25]: 248 s
- CT (clotting time) [25]: 837 s
- CFT (clot formation time) [26]: 660 s
- CT (clotting time) [26]: 1266 s
- CFT (clot formation time) [27]: 182 s
- CT (clotting time) [27]: 572 s
- CFT (clot formation time) [28]: 230 s
- CT (clotting time) [28]: 711 s
- CFT (clot formation time) [29]: 224 s
- CT (clotting time) [29]: 686 s
- CFT (clot formation time) (Ex15, TP 0.033 μg/mL+Ca+CTI+PKSI-527, heparan sulfate 0.2 μg/mL, rTM 5 nM): 209 s

Reference: US20240060999A1, “BLOOD COAGULATION INSPECTION METHOD” (FUJIMORI KOGYO CO., LTD, priority 2020, published 2024)
